Results reported in the kinase profiling compilation of Christmann-Franck et al. (2016).

What was measured:
Assay in all cases: KINOMEscan competition binding
Conditions in all cases: compound 0.1 µM
[1] = system: ABL1 (human), P00519 [E255K]
ACVRL1 (human) = ACVRL1 (human) (UniProt P37023)
ADCK3 (human) = ADCK3 (human) (UniProt Q8NI60)
CDK18 (human) = CDK18 (human) (UniProt Q07002)
CSNK1A1L (human) = CSNK1A1L (human) (UniProt Q8N752)
DAPK1 (human) = DAPK1 (human) (UniProt P53355)
DAPK3 (human) = DAPK3 (human) (UniProt O43293)
ERBB4 (human) = ERBB4 (human) (UniProt Q15303)
FGFR4 (human) = FGFR4 (human) (UniProt P22455)
FLT1 (human) = FLT1 (human) (UniProt P17948)
INSR (human) = INSR (human) (UniProt P06213)
[2] = target: JAK1 JH1 catalytic (human) (UniProt P23458)
MAP3K1 (human) = MAP3K1 (human) (UniProt Q13233)
MAP3K7 (human) = MAP3K7 (human) (UniProt O43318)
MATK (human) = MATK (human) (UniProt P42679)
MYLK2 (human) = MYLK2 (human) (UniProt Q9H1R3)
Chain of MYLK2 (human) (Q9H1R3 whole entry, looked up): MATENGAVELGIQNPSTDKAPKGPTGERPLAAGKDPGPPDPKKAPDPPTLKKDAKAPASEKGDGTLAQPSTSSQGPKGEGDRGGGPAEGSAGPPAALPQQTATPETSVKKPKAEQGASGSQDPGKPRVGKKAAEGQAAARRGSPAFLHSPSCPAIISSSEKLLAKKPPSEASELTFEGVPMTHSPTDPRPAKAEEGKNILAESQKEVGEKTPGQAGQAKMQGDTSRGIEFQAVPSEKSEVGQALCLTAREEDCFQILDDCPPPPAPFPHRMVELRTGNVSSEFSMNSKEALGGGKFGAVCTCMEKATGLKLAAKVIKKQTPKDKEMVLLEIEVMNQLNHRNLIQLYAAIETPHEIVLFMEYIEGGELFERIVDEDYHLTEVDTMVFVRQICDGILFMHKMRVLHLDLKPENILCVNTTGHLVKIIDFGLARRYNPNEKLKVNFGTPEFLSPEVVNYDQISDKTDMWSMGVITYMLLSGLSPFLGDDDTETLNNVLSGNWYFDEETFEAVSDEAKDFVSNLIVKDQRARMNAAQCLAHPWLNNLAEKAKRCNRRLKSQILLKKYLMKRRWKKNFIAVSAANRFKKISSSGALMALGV

MYLK4 (human) = MYLK4 (human) (UniProt Q86YV6)
NEK11 (human) = NEK11 (human) (UniProt Q8NG66)
NEK4 (human) = NEK4 (human) (UniProt P51957)
PDGFRA (human) = PDGFRA (human) (UniProt P16234)
[3] = system: PIK3CA (human), P42336 [E542K]
[4] = system: PIK3CA (human), P42336 [E545K]
PIM2 (human) = PIM2 (human) (UniProt Q9P1W9)
PIP5K1A (human) = PIP5K1A (human) (UniProt Q99755)
Chain of PIP5K1A (human) (Q99755 whole entry, looked up): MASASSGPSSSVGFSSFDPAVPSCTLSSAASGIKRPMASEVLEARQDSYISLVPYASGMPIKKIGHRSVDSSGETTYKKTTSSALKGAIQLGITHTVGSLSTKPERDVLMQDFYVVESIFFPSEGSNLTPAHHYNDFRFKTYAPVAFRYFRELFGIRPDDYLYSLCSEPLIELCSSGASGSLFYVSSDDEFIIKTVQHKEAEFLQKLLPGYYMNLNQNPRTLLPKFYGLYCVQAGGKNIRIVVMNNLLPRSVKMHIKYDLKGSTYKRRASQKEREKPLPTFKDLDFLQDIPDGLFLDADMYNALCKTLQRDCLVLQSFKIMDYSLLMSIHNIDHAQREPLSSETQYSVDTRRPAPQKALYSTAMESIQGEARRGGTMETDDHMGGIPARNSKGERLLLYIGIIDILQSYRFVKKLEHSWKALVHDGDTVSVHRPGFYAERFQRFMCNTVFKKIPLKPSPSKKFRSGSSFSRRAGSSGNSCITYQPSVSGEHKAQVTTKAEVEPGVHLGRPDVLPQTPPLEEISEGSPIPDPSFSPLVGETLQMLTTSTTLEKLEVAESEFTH

PLK3 (human) = PLK3 (human) (UniProt Q9H4B4)
RIOK3 (human) = RIOK3 (human) (UniProt O14730)
ROCK2 (human) = ROCK2 (human) (UniProt O75116)
RPS6KA5 KD1 (human) = RPS6KA5 KD1 (human) (UniProt O75582)
SGK3 (human) = SGK3 (human) (UniProt Q96BR1)
Chain of SGK3 (human) (Q96BR1 whole entry, looked up): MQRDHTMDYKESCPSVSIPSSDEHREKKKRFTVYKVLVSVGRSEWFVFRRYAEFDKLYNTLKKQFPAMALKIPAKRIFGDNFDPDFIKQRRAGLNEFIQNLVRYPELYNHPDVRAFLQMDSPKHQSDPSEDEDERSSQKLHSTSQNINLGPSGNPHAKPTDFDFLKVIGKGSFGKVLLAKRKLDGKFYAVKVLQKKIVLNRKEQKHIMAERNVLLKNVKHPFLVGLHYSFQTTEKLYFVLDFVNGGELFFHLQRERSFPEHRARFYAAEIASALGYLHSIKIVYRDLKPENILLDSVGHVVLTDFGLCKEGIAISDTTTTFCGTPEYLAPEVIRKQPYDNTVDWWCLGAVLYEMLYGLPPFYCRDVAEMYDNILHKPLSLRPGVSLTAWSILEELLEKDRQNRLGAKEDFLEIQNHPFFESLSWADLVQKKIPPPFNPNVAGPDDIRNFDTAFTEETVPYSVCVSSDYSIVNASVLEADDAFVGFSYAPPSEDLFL

SIK1 (human) = SIK1 (human) (UniProt P57059)
Chain of SIK1 (human) (P57059 whole entry, looked up): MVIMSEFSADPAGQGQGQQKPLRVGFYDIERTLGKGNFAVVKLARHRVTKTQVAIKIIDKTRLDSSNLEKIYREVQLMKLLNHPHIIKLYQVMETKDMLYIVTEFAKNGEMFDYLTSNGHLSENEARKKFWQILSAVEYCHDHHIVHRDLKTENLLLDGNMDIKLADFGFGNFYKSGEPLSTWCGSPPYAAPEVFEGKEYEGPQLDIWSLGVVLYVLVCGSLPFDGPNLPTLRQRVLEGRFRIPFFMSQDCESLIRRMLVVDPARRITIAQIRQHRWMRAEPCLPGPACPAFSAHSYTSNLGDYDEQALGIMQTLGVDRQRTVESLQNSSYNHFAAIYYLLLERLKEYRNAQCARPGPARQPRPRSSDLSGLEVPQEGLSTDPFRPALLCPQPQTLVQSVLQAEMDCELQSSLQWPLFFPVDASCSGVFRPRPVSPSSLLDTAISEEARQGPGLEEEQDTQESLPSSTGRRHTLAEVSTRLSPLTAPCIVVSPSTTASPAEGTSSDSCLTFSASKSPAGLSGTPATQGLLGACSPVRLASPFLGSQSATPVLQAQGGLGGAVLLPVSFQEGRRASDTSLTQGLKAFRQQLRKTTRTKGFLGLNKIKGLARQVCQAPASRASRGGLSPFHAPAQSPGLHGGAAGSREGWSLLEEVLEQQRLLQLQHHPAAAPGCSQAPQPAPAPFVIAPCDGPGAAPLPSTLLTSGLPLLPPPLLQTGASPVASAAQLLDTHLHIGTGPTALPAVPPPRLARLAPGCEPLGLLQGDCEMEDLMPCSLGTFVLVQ

SLK (human) = SLK (human) (UniProt Q9H2G2)
Chain of SLK (human) (Q9H2G2 whole entry, looked up): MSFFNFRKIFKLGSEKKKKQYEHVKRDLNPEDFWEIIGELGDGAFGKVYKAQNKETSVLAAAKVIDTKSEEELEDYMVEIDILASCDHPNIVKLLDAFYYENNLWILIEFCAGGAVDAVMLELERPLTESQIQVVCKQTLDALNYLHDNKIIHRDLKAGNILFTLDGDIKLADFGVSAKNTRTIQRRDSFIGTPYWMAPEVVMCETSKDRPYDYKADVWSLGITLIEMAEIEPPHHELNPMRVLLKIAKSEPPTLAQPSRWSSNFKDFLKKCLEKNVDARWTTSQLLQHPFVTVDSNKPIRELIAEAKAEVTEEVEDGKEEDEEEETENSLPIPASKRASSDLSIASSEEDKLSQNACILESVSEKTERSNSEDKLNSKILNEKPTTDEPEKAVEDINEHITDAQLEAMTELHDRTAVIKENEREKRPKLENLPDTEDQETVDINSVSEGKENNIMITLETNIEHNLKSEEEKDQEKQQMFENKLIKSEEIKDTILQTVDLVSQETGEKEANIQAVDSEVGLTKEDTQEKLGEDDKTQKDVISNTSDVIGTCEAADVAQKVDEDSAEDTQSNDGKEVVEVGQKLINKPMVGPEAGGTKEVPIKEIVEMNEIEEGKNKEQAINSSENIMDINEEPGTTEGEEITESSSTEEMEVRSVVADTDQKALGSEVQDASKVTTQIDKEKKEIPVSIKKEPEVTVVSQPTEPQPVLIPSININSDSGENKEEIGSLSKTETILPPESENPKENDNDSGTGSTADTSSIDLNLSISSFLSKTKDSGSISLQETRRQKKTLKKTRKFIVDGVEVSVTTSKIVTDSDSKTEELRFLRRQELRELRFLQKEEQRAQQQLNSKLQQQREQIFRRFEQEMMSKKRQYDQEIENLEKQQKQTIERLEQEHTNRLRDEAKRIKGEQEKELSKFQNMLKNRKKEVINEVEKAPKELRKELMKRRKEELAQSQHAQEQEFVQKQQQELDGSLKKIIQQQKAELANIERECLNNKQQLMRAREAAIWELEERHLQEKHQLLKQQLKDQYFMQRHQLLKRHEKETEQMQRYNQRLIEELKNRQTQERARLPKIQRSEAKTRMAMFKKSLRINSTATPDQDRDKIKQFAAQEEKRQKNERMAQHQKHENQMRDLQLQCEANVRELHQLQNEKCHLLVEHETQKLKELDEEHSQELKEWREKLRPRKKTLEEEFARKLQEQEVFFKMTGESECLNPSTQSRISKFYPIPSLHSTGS

SNRK (human) = SNRK (human) (UniProt Q9NRH2)
SRMS (human) = SRMS (human) (UniProt Q9H3Y6)
STK32B (human) = STK32B (human) (UniProt Q9NY57)
TAOK3 (human) = TAOK3 (human) (UniProt Q9H2K8)
TGFBR2 (human) = TGFBR2 (human) (UniProt P37173)
TLK1 (human) = TLK1 (human) (UniProt Q9UKI8)
TLK2 (human) = TLK2 (human) (UniProt Q86UE8)
ULK2 (human) = ULK2 (human) (UniProt Q8IYT8)
WNK1 (human) = WNK1 (human) (UniProt Q9H4A3)

Chain of ADCK3 (human) (Q8NI60 whole entry, looked up): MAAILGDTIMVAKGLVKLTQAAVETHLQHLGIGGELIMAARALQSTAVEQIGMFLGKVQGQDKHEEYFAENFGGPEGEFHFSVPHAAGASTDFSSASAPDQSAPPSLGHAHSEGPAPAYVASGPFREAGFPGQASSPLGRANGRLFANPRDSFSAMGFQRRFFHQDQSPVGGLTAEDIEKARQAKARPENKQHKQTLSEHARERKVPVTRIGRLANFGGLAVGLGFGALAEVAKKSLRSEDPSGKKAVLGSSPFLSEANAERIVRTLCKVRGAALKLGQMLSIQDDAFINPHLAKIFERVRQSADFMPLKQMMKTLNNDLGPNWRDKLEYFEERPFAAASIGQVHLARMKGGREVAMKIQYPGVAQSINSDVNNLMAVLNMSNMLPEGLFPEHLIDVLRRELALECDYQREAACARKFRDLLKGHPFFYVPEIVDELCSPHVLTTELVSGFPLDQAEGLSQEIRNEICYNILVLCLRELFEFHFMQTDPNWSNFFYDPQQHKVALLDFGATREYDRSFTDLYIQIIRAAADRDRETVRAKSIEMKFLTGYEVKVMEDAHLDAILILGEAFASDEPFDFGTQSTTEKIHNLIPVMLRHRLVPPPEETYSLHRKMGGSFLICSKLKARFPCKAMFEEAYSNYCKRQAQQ
Chain of ACVRL1 (human) (P37023 whole entry, looked up): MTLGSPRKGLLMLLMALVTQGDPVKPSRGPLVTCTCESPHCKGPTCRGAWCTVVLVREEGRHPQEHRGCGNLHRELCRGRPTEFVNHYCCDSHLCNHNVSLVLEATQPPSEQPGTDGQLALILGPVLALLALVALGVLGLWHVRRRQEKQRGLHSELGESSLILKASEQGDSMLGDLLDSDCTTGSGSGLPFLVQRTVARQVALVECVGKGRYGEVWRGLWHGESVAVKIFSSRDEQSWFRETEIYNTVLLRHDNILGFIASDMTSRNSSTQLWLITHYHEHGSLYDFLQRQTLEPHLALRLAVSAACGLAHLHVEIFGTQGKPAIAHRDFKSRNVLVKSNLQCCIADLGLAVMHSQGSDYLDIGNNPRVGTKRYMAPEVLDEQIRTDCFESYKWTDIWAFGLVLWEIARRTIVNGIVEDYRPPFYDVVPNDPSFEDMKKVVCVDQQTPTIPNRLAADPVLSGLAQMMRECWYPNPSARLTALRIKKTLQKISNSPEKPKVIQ

Q: With `CCc1ccc(C(=O)Nc2cc(CN3CCN(C)CC3)cc(C(F)(F)F)c2)cc1C#Cc1cnc2ccnn2c1` as the compound, how does the kinase still bound, per cent of control [1] read?
A: 100%

Q: And the kinase still bound, per cent of control (ACVRL1 (human))?
A: 100%

Q: And the kinase still bound, per cent of control (ADCK3 (human))?
A: 90%

Q: What about the kinase still bound, per cent of control (CDK18 (human)) of the same compound?
A: 100%

Q: And the kinase still bound, per cent of control (CSNK1A1L (human))?
A: 83%

Q: And the kinase still bound, per cent of control (DAPK1 (human))?
A: 100%

Q: What about the kinase still bound, per cent of control (DAPK3 (human)) of the same compound?
A: 80%

Q: And the kinase still bound, per cent of control (ERBB4 (human))?
A: 100%

Q: And the kinase still bound, per cent of control (FGFR4 (human))?
A: 86%

Q: And the kinase still bound, per cent of control (FLT1 (human))?
A: 84%

Q: What about the kinase still bound, per cent of control (INSR (human)) of the same compound?
A: 86%

Q: What about the kinase still bound, per cent of control [2] of the same compound?
A: 100%

Q: What about the kinase still bound, per cent of control (MAP3K1 (human)) of the same compound?
A: 100%

Q: What about the kinase still bound, per cent of control (MAP3K7 (human)) of the same compound?
A: 100%

Q: What about the kinase still bound, per cent of control (MATK (human)) of the same compound?
A: 100%

Q: And the kinase still bound, per cent of control (MYLK2 (human))?
A: 100%

Q: And the kinase still bound, per cent of control (MYLK4 (human))?
A: 93%

Q: And the kinase still bound, per cent of control (NEK11 (human))?
A: 91%

Q: What about the kinase still bound, per cent of control (NEK4 (human)) of the same compound?
A: 100%

Q: And the kinase still bound, per cent of control (PDGFRA (human))?
A: 79%

Q: What about the kinase still bound, per cent of control [3] of the same compound?
A: 100%

Q: And the kinase still bound, per cent of control [4]?
A: 100%

Q: What about the kinase still bound, per cent of control (PIM2 (human)) of the same compound?
A: 96%

Q: And the kinase still bound, per cent of control (PIP5K1A (human))?
A: 100%

Q: What about the kinase still bound, per cent of control (PLK3 (human)) of the same compound?
A: 100%

Q: What about the kinase still bound, per cent of control (RIOK3 (human)) of the same compound?
A: 64%

Q: And the kinase still bound, per cent of control (ROCK2 (human))?
A: 100%

Q: What about the kinase still bound, per cent of control (RPS6KA5 KD1 (human)) of the same compound?
A: 93%

Q: And the kinase still bound, per cent of control (SGK3 (human))?
A: 100%

Q: And the kinase still bound, per cent of control (SIK1 (human))?
A: 100%

Q: What about the kinase still bound, per cent of control (SLK (human)) of the same compound?
A: 66%

Q: What about the kinase still bound, per cent of control (SNRK (human)) of the same compound?
A: 75%

Q: What about the kinase still bound, per cent of control (SRMS (human)) of the same compound?
A: 99%

Q: And the kinase still bound, per cent of control (STK32B (human))?
A: 100%

Q: What about the kinase still bound, per cent of control (TAOK3 (human)) of the same compound?
A: 100%

Q: What about the kinase still bound, per cent of control (TGFBR2 (human)) of the same compound?
A: 100%

Q: And the kinase still bound, per cent of control (TLK1 (human))?
A: 100%

Q: What about the kinase still bound, per cent of control (TLK2 (human)) of the same compound?
A: 100%

Q: What about the kinase still bound, per cent of control (ULK2 (human)) of the same compound?
A: 86%

Q: And the kinase still bound, per cent of control (WNK1 (human))?
A: 100%
